Test system: EoL-1 (human eosinophilic leukaemia cell line) cells
Assay: TNF-α-induced cytokine release, non-differentiated EoL-1 cells (NO PMA) (Luminex)
Type: cell-based
Set-up: key to Fractalkine (NO PMA), p of decrement / IL-1α (NO PMA), p of decrement / IL-1β (NO PMA), p of decrement / IL-1ra (NO PMA), p of decrement / IL-5 (NO PMA), p of decrement / IL-7 (NO PMA), p of decrement / IL-8 (NO PMA), p of decrement / IP-10 (NO PMA), p of decrement / MCP-1 (NO PMA), p of decrement / MIP-1β (NO PMA), p of decrement / VEGF (NO PMA), p of decrement: ns = non significant
Protocol: EoL-1 (human eosinophilic leukaemia cell line) cells (Saito et al., 1985; Mayumi, 1992) were maintained in RPMI-1640 medium with L-glutamine supplemented with 10% (v/v) FBS at 37° C. in a humidified atmosphere with 5% CO2. Where indicated, 24 h before the experiment 25 ng/mL PMA ((phorbol 12-myristate 13-acetate, purchased from Sigma Aldrich) was added to the medium to induce eosinophil granulation and differentiation (Ohtsu et al., 1993; Zimmermann et al., 2000).
Half-million cells were aliquoted per point in a 24 well plate; each experiment was performed in triplicate and carried out in parallel with eosinophils differentiated and non differentiated with PMA (25 ng/mL, 24 h). Cells were suspended in low serum medium (RPMI-1640, 0.1% (v/v) FBS). TNF-α was used to induce cytokine secretion as previously described by Steube et al. (2000), and the net release was obtained by comparison to the basal (non-TNF-α treated). In the first experiment we evaluated the concentration and time relation between TNF-α stimulation and cytokine release. Therefore, 5, 10, and 25 ng/mL of TNF-α was administered to the cells at 0, ½, 1, 2, 3, 6, 12 and 24 h (data not shown). An aliquot of 150 μL of supernate was collected for cytokines' analysis. […] Differentiated and non-differentiated EoL-1 cells were exposed from 0.1 to 2.3 mM levocabastine ([…]Levocabastine 0.05% solution eye drops containing cyclodextrins, without benzalkonium chloride), and aliquots of the supernates were collected after 12 and 24 h. The content of cytokines at time zero was estimated by treating the cells with 400 nM calcimycin (A-23187), which is a cytolytic agent that frees all the mediators from the cytoplasmic compartment. In addition, for each experiment we tested the effect of the vehicle, which was added to the wells in a concentration equal to the maximum amount used for drug dilution.
Samples (supernates 12 and 24 h) in triplicate were analyzed using Luminex 200™ (Luminex, Austin, Tex.) and Beadview software v1.0 (Upstate Cell Signaling Solutions, Temecula, Calif.).
All data are presented as mean±SEM for the indicated number of experiments. Statistical significance was determined by Newman-Keuls test after ANOVA using GraphPad Prism (version 3.0; GraphPad Software Inc., San Diego, Calif., USA). P-values<0.05 were considered to be significant.

[1] = 12 h, TNF-α 5 ng + Levocabastine 2 mM vs TNF-α
[2] = 12 h, TNF-α 10 ng + Levocabastine 2 mM vs TNF-α
[3] = 12 h, TNF-α 20 ng + Levocabastine 2 mM vs TNF-α
[4] = 12 h, TNF-α 5, 10, 20 ng + Levocabastine 2 mM vs TNF-α

C[C@@H]1CN([C@H]2CC[C@](C#N)(c3ccc(F)cc3)CC2)CC[C@]1(C(=O)O)c1ccccc1 [Levocabastine, levocabastine]
release of IL-1-ra induced by TNF-α (2 mM, TNF-α 10 ng, 24 h, not exposed to PMA, not influenced by VCAM-1 or fibronectin (FIG. 11)): effective in reducing the release
release of IL-6 induced by TNF-α (2 mM, TNF-α 10 ng, 24 h, not exposed to PMA, not influenced by VCAM-1 or fibronectin (FIG. 12)): effective in reducing the release
release of IL-8 induced by TNF-α (2 mM, TNF-α 10 ng, 24 h, not exposed to PMA, not influenced by VCAM-1 or fibronectin (FIG. 13)): effective in reducing the release
release of IL-12-P40 induced by TNF-α (2 mM, TNF-α 5, 10 and 20 ng, 24 h, without PMA (FIG. 7)): capable of reducing the release
GM-CSF (NO PMA), p of decrement [1]: ns
IL-1β (NO PMA), p of decrement [1]: ns
IL-5 (NO PMA), p of decrement [1]: ns
IL-6 (NO PMA), p of decrement [1]: ns
IL-7 (NO PMA), p of decrement [1]: ns
IL-8 (NO PMA), p of decrement [1]: ns
IL-10 (NO PMA), p of decrement [1]: ns
IL-12p40 (NO PMA), p of decrement [1]: P < 0.001
MCP-1 (NO PMA), p of decrement [1]: ns
TGF-α (NO PMA), p of decrement [1]: ns
VEGF (NO PMA), p of decrement [1]: P < 0.01
GM-CSF (NO PMA), p of decrement [2]: ns
IL-1β (NO PMA), p of decrement [2]: ns
IL-5 (NO PMA), p of decrement [2]: ns
IL-6 (NO PMA), p of decrement [2]: ns
IL-7 (NO PMA), p of decrement [2]: ns
IL-8 (NO PMA), p of decrement [2]: ns
IL-10 (NO PMA), p of decrement [2]: ns
IL-12p40 (NO PMA), p of decrement [2]: P < 0.001
MCP-1 (NO PMA), p of decrement [2]: ns
TGF-α (NO PMA), p of decrement [2]: ns
VEGF (NO PMA), p of decrement [2]: P < 0.01
GM-CSF (NO PMA), p of decrement [3]: ns
IL-1β (NO PMA), p of decrement [3]: ns
IL-5 (NO PMA), p of decrement [3]: ns
IL-6 (NO PMA), p of decrement [3]: ns
IL-7 (NO PMA), p of decrement [3]: ns
IL-8 (NO PMA), p of decrement [3]: ns
IL-10 (NO PMA), p of decrement [3]: ns
IL-12p40 (NO PMA), p of decrement [3]: P < 0.001
MCP-1 (NO PMA), p of decrement [3]: ns
TGF-α (NO PMA), p of decrement [3]: ns
VEGF (NO PMA), p of decrement [3]: P < 0.05
Fractalkine (NO PMA), p of decrement [4]: increase of cytokine secretion
G-CSF (NO PMA), p of decrement [4]: increase of cytokine secretion
IL-1ra (NO PMA), p of decrement [4]: increase of cytokine secretion
IL-1α (NO PMA), p of decrement [4]: increase of cytokine secretion
IP-10 (NO PMA), p of decrement [4]: increase of cytokine secretion
MIP-1α (NO PMA), p of decrement [4]: increase of cytokine secretion
MIP-1β (NO PMA), p of decrement [4]: increase of cytokine secretion
RANTES (NO PMA), p of decrement [4]: increase of cytokine secretion
Fractalkine (NO PMA), p of decrement (12 h, TNF-α vs Lev 0.1 mM): ns
IL-1ra (NO PMA), p of decrement (12 h, TNF-α vs Lev 0.1 mM): ns
IL-1α (NO PMA), p of decrement (12 h, TNF-α vs Lev 0.1 mM): ns
IL-1β (NO PMA), p of decrement (12 h, TNF-α vs Lev 0.1 mM): ns
IL-5 (NO PMA), p of decrement (12 h, TNF-α vs Lev 0.1 mM): ns
IL-7 (NO PMA), p of decrement (12 h, TNF-α vs Lev 0.1 mM): ns
IL-8 (NO PMA), p of decrement (12 h, TNF-α vs Lev 0.1 mM): ns
IP-10 (NO PMA), p of decrement (12 h, TNF-α vs Lev 0.1 mM): ns
MCP-1 (NO PMA), p of decrement (12 h, TNF-α vs Lev 0.1 mM): ns
MIP-1β (NO PMA), p of decrement (12 h, TNF-α vs Lev 0.1 mM): ns
VEGF (NO PMA), p of decrement (12 h, TNF-α vs Lev 0.1 mM): ns
Fractalkine (NO PMA), p of decrement (12 h, TNF-α vs Lev 0.5 mM): ns
IL-1ra (NO PMA), p of decrement (12 h, TNF-α vs Lev 0.5 mM): ns
IL-1α (NO PMA), p of decrement (12 h, TNF-α vs Lev 0.5 mM): ns
IL-1β (NO PMA), p of decrement (12 h, TNF-α vs Lev 0.5 mM): ns
